Assay [1] addresses T1, Angiotensin II receptor (AT-1) type-1 (Rattus norvegicus, UniProt P29089+P25095).
T1 sequence (P29089 whole entry): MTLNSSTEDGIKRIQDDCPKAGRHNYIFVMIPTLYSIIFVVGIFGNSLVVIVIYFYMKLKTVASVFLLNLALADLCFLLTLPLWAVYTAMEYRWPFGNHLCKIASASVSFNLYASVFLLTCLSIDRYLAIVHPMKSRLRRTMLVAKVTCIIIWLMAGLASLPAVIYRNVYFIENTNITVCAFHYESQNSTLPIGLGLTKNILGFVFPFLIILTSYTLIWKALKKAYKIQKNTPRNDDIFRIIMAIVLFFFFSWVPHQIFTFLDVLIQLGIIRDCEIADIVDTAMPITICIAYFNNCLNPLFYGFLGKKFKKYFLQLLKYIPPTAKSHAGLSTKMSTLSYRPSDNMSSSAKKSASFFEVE
T1 sequence (P25095 whole entry): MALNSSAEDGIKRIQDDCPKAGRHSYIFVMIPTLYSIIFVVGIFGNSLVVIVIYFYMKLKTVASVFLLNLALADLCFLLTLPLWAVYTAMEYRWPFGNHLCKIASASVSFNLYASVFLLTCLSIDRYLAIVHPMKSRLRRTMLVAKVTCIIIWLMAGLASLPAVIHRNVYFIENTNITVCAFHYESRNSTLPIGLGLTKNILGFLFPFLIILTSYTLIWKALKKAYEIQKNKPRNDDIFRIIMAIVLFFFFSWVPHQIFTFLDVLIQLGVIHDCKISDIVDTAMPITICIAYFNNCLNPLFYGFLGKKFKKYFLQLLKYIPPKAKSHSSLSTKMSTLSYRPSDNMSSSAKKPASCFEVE
The assay can be described thus: In vitro inhibitory activity against rat Angiotensin II receptor, type 1 expressed in CHO cells. The class given is cell-based.

Assay [2] concerns the target T1, Angiotensin II receptor (AT-1) type-1. Kind of assay: In vitro binding affinity against Angiotensin II receptor, type 1 from rat liver membranes.

Structures are written as SMILES. Numbered stars: 1 amine (or outer) side, 2 acyl side, 3 side chain; on linkers, the order of the positions; unused ones are H or OH. Bridge positions count the residues as written; N and C are the ends. Square brackets hold non-standard residues; d marks the D form. Peptide text beside a SMILES is read from it. X2 = O=C([C@@H]1CC[C@@H]([*:3])N1[*:1])[*:2]; X1 = O=C([C@@H]1CC[C@H]([*:3])N1[*:1])[*:2]; hCys = N[C@@H](CCS)C(=O)O

Turning to `NC(N)=NCCC[C@H](NC(=O)[C@@H](N)CC(=O)O)C(=O)N[C@H]1CS[C@H]2CC[C@@H](C(=O)N[C@@H](Cc3c[nH]cn3)C(=O)N3CCC[C@H]3C(=O)N[C@@H](Cc3ccccc3)C(=O)O)N2C(=O)[C@H](Cc2ccc(O)cc2)NC1=O` (H-DRCY[X1]HPF-OH; thioether 3-5), in assay [1], the IC50 is listed as more than 10000 nM.
In the case of `NC(N)=NCCC[C@H](NC(=O)[C@@H](N)CC(=O)O)C(=O)N[C@H]1CS[C@@H]2CC[C@@H](C(=O)N[C@@H](Cc3c[nH]cn3)C(=O)N3CCC[C@H]3C(=O)N[C@@H](Cc3ccccc3)C(=O)O)N2C(=O)[C@H](Cc2ccc(O)cc2)NC1=O` (H-DRCY[X2]HPF-OH; thioether 3-5), the concentration for half-maximal inhibition (IC50) in assay [1] is recorded as more than 10000 nM.
Still for that read-out and setting: next, `CC(C)[C@H](NC(=O)[C@H](CCCN=C(N)N)NC(=O)[C@@H](N)CC(=O)O)C(=O)N[C@@H](Cc1ccc(O)cc1)C(=O)N[C@H]1CS[C@@H]2CC[C@@H](C(=O)N[C@@H](Cc3ccccc3)C(=O)O)N2C(=O)[C@H](Cc2c[nH]cn2)NC1=O` (H-DRVYCH[X2]F-OH; thioether 5-7): more than 10000 nM.
In turn, `NC(N)=NCCC[C@H](NC(=O)[C@@H](N)CC(=O)O)C(=O)N[C@H]1CCS[C@H]2CC[C@@H](C(=O)N[C@@H](Cc3c[nH]cn3)C(=O)N3CCC[C@H]3C(=O)N[C@@H](Cc3ccccc3)C(=O)O)N2C(=O)[C@H](Cc2ccc(O)cc2)NC1=O` (H-DR[hCys]Y[X1]HPF-OH; thioether 3-5) registered a half-maximal inhibitory concentration (IC50) in assay [1] of 800 nM. This molecule yielded an inhibition constant (Ki) in assay [2] of 750 nM.
For the molecule `NC(N)=NCCC[C@H](NC(=O)[C@@H](N)CC(=O)O)C(=O)N[C@H]1CCSSCC[C@@H](C(=O)N[C@@H](Cc2c[nH]cn2)C(=O)N2CCC[C@H]2C(=O)N[C@@H](Cc2ccccc2)C(=O)O)NC(=O)[C@H](Cc2ccc(O)cc2)NC1=O` (H-DR[hCys]Y[hCys]HPF-OH; disulfide 3-5), in assay [1], the IC50 worked out at 0.2 nM. The inhibition constant (Ki) in assay [2] is reported as 0.19 nM.

The values above are taken from ChEMBL document CHEMBL1132461 (J Med Chem, 1999).
